Usually EC50 stands for the concentration giving half of the maximal effect.

This test addresses T1, human RXFP1 (Homo sapiens, UniProt Q9HBX9).
T1 construct: expressed in transfected cells
T1 sequence (Q9HBX9 1-757): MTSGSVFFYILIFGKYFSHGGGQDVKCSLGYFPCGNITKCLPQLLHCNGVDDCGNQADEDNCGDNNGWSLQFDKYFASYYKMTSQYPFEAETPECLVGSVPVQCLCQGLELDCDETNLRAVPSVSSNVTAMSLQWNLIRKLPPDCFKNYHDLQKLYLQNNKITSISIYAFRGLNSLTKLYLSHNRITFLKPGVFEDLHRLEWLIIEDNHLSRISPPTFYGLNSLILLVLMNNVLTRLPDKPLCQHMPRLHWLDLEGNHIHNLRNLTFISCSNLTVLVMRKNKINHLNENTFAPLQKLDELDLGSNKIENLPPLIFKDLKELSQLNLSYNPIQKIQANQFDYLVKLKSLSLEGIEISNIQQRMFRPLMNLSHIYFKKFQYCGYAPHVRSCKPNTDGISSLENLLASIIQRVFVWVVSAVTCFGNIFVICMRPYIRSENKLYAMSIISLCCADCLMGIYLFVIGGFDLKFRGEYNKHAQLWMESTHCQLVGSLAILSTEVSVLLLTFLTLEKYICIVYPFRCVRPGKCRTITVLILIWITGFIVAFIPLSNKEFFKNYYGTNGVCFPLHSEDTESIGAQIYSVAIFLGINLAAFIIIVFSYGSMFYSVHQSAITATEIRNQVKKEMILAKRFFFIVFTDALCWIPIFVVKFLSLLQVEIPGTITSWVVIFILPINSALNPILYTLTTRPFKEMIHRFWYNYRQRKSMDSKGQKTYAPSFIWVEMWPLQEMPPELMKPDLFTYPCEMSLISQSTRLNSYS
Description: hRXFP1 HEK293 cAMP assay (HTRF). The test is classed as cell-based. The settings on record: HEK293 cells stably expressing human RXFP1, 30 min at room temperature. In short, it runs like this:
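hRXFP1-HEK293 stable line; HBSS + Ca/Mg, 20 mM HEPES, 0.05% BSA, 0.5 mM IBMX; cpd 0.010 nM–50 μM, 2% DMSO; 30 min RT; lysis, HTRF cAMP detection; 4-PL fit.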
As to `COc1ccc(CCCC(F)(F)F)cc1C(=O)NC1C2CCC(/C2=C/C(F)(F)F)[C@@H]1C(=O)Nc1ccc(F)c(C(F)(F)F)c1` (some centres unmarked) [Example 185, (7Z)-N-[4-fluoro-3-(trifluoromethyl)phe-nyl]-3-[2-methoxy-5-(4,4,4-trifluorobutyl)benza-mido]-7-(2,2,2-trifluoroethylidene)bi-cyclo[2.2.1]heptane-2-carboxamide], the EC50 amounted to 603 nM.
Next, `COc1ccc(CCCN(C(=O)OC(C)(C)C)C2CCC2)cc1C(=O)N[C@@H]1C2CCC(/C2=C/C(F)(F)F)[C@@H]1C(=O)Nc1ccc(F)c(C(F)(F)F)c1` (some centres unmarked) [Example 120]: 304 nM.
The value for `COc1ccc(C(=O)N(C)CCS(C)(=O)=O)cc1C(=O)N[C@H]1[C@@H](C(=O)Nc2ccc(F)c(C(F)(F)F)c2)[C@H]2CC[C@@H]1/C2=C\C1CC1` [Example 250, N3-[(1R,2R,3S,4R,7Z)-7-(cyclopropyl-methylidene)-3-{[4-fluoro-3-(trifluoromethyl)phenyl]carbamoyl}bicyclo[2.2.1]heptan-2-yl]-N1-(2-methane-sulfonylethyl)-4-methoxy-N1-methylbenzene-1,3-dicarboxamide] was 34.9 nM.
The value for `COc1ccc(CCCNC(=O)[C@H](C)O)cc1C(=O)N[C@@H]1C2CCC(/C2=C/C(F)(F)F)[C@@H]1C(=O)Nc1ccc(F)c(C(F)(F)F)c1` (some centres unmarked) [Example 114] was 457 nM.
Consider `COc1ccc(C2CC3CC(CO)CC32)cc1C(=O)N[C@H]1[C@@H](C(=O)Nc2ccc(F)c(C(F)(F)F)c2)[C@H]2CC[C@@H]1/C2=C\C1CC1` (single isomer, unassigned) [Example 350], for which the EC50 stood at 17.7 nM.
The value for `COc1ccc(S(=O)(=O)N2CCN[C@H](CO)C2)cc1C(=O)N[C@H]1[C@@H](C(=O)Nc2ccc(F)c(C(F)(F)F)c2)[C@H]2CC[C@@H]1/C2=C\C(F)(F)F` [Example 212, (1R,2S,3R,4R,7Z)-N-[4-fluoro-3-(trifluoromethyl)phenyl]-3-(5-{[(3S)-3-(hydroxymethyl)piperazin-1-yl]sulfonyl}-2-methoxybenzamido)-7-(2,2,2-trifluoroethylidene) bicyclo[2.2.1] heptane-2-carboxamide] was 589 nM.
The value for `COc1ccc(CCC(C)(C)O)cc1C(=O)N[C@H]1[C@@H](C(=O)NCC(C)(C)C)[C@H]2CC[C@@H]1/C2=C\C1CC1` [Example 271, (1R,2S,3R,4R,7Z)-7-(cyclopropylmethyl-idene)-N-(2,2-dimethylpropyl)-3-[5-(3-hydroxy-3-methylbutyl)-2-methoxybenzamido] bicyclo[2.2.1]heptane-2-carboxamide] was 264 nM; that for `COc1ccc(/C=C/C(=O)N2CC3CCC(C2)O3)cc1C(=O)N[C@H]1[C@@H](C(=O)Nc2ccc(F)c(C(F)(F)F)c2)[C@H]2CC[C@@H]1/C2=C\C1CC1` [Example 308, (1R,2S,3R,4R,7Z)-7-(cyclopropylmethylidene)-N-[4-fluoro-3-(trifluoromethyl)phenyl]-3-{2-methoxy-5-[(1E)-3-{8-oxa-3-azabicyclo[3.2.1]octan-3-yl}-3-oxoprop-1-en-1-yl]benzamido} bicyclo[2.2.1] heptane-2-carboxamide] was 13.7 nM.
As for `COc1ccc([C@H]2C[C@@H](O)C2)cc1C(=O)NC1C2CCC(/C2=C/C2CC2)[C@@H]1C(=O)Nc1ccc(F)c(C(F)(F)F)c1` (stereo partly drawn) [Example 147, (2S,3R,7Z)-7-(cyclopropylmethyli-dene)-N-[4-fluoro-3-(trifluoromethyl)phe-nyl]-3-{2-methoxy-5-[(1r,3r)-3-hydroxycyclobutyl]benzamido}bicyclo [2.2.1]heptane-2-carboxamide], the response was half-maximal at 21 nM (EC50).
As for `COc1ccc(C2CC3CC(O)CC32)cc1C(=O)N[C@H]1[C@@H](C(=O)Nc2ccc(F)c(C(F)(F)F)c2)[C@H]2CC[C@@H]1/C2=C\C1CC1` (single isomer, unassigned) [Example 343], the EC50 came to 75.2 nM.
In the case of `COc1ccc(C2CC(CO)C2)cc1C(=O)N[C@H]1[C@@H](C(=O)Nc2ccc(F)c(C(F)(F)F)c2)[C@H]2CC[C@@H]1/C2=C\C1CC1` (stereo partly drawn) [Example 330, (1R,2S,3R,4R,7Z)-7-(cyclopropylmethylidene)-N-[4-fluoro-3-(trifluoromethyl)phenyl]-3-{5-[3-(hydroxymethyl)cyclobutyl]-2-methoxybenzamido} bicyclo[2.2.1]heptane-2-carboxamide], the EC50 is 79 nM.
Turning to `COc1ccc(S(=O)(=O)N2CCOC[C@@H]2CO)cc1C(=O)N[C@H]1[C@@H](C(=O)Nc2ccc(F)c(C(F)(F)F)c2)[C@H]2CC[C@@H]1/C2=C\C(F)(F)F` [Example 213, (1R,2S,3R,4R,7Z)-N-[4-fluoro-3-(trifluoromethyl)phenyl]-3-(5-{[(3S)-3-(hydroxymethyl)morpholin-4-yl]sulfonyl}-2-methoxybenzamido)-7-(2,2,2-trifluoroethylidene) bicyclo[2.2.1] heptane-2-carboxamide], the EC50 stood at 331 nM.
The value for `COc1ccc(CCCNC(=O)C(C)(C)O)cc1C(=O)N[C@@H]1C2CCC(/C2=C/C(F)(F)F)[C@@H]1C(=O)Nc1ccc(F)c(C(F)(F)F)c1` (stereo partly drawn) [Example 113, (2S,3R,7Z)-N-[4-fluoro-3-(trifluoromethyl)phe-nyl]-3-{5-[3-(2-hydroxy-2-methylpropanamido)propyl]-2-methoxybenzamido}-7-(2,2,2-trifluoroethylidene)bi-cyclo[2.2.1]heptane-2-carboxamide] was 341 nM.
In the case of `O=C(N[C@H]1[C@@H](C(=O)Nc2ccc(F)c(C(F)(F)F)c2)[C@H]2CC[C@@H]1/C2=C\C(F)(F)F)c1cc(C#CCO)ccc1OCCO` [Example 106, (1R,2S,3R,4R,Z)—N-(4-fluoro-3-(trifluoromethyl)phenyl)-3-(2-(2-hydroxyethoxy)-5-(3-hydroxyprop-1-yn-1-yl)benzamido)-7-(2,2,2-trifluoroethylidene) bicyclo[2.2.1]heptane-2-carboxamide], the response was half-maximal at 377 nM (EC50).
For `COc1ccc(CN2C(=O)CNC2=O)cc1C(=O)N[C@@H]1C2CCC(/C2=C/C2CC2)[C@@H]1C(=O)Nc1ccc(F)c(C(F)(F)F)c1` (stereo partly drawn) [Example 22, (2S,3R,7Z)-7-(cyclopropylmethyli-dene)-3-{5-[(2,5-dioxoimidazolidin-1-yl)methyl]-2-methoxybenzamido}-N-[4-fluoro-3-(trifluoromethyl)phe-nyl]bicyclo[2.2.1]hept-ane-2-carboxamide], a half-maximal effect (EC50) was put at 417 nM.
Next, `COc1ccc(CCc2ccc(OC)c(C(=O)NC3C4CCC(/C4=C/C(F)(F)F)[C@@H]3C(=O)Nc3ccc(F)c(C(F)(F)F)c3)c2)cc1` (some centres unmarked) [Example 188, (7Z)-N-[4-fluoro-3-(trifluoromethyl)phe-nyl]-3-{2-methoxy-5-[2-(4-methoxyphenyl)ethyl]benzamido}-7-(2,2,2-trifluoroethylidene)bi-cyclo[2.2.1]heptane-2-carboxamide]: 56 nM.
`COc1ccc(CCC(C)(C)O)cc1C(=O)NC1C2CCC(/C2=C/C2CCCOC2)[C@@H]1C(=O)Nc1ccc(F)c(C(F)(F)F)c1` (single isomer, unassigned) [Example 172, (7Z)-N-[4-fluoro-3-(trifluoromethyl)phe-nyl]-3-[5-(3-hydroxy-3-methylbutyl)-2-methoxybenzamido]-7-[(oxan-3-yl)methylidene]bicy-clo[2.2.1]heptane-2-carboxamide] displayed an EC50 of 39 nM.
Next, `COc1ccc(C2CC3CC(CO)CC32)cc1C(=O)N[C@H]1[C@@H](C(=O)Nc2ccc(F)c(C(F)(F)F)c2)[C@H]2CC[C@@H]1/C2=C\C1CC1` (single isomer, unassigned) [Example 351]: 27.7 nM; `COc1ccc(CC[C@H](C)O)cc1C(=O)N[C@@H]1C2CCC(/C2=C/C2CC2)[C@@H]1C(=O)Nc1ccc(F)c(C(F)(F)F)c1` (stereo partly drawn) [Example 94, (2S,3R,7Z)-7-(cyclopropylmethyli-dene)-N-[4-fluoro-3-(trifluoromethyl)phe-nyl]-3-{5-[(3S)-3-hydroxybutyl]-2-methoxybenzamido} bicyclo[2.2.1]heptane-2-carboxamide]: 62 nM.
The value for `COc1ccc(COC2CCOCC2)cc1C(=O)N[C@H]1[C@@H](C(=O)Nc2ccc(F)c(C(F)(F)F)c2)[C@H]2CC[C@@H]1/C2=C\C1CC1` [Example 288, (1R,2S,3R,4R,7Z)-7-(cyclopropyl-methylidene)-N-[4-fluoro-3-(trifluoromethyl)phenyl]-3-{2-methoxy-5-[(oxan-4-yloxy)methyl]benzamido} bicyclo[2.2.1] heptane-2-carboxamide] was 58.7 nM.

The values above are taken from US20250268903A1, “RXFP1 AGONISTS” (BRISTOL-MYERS SQUIBB COMPANY, priority 2021, published 2025).
